Data on 15 compounds can be found in patent US10167292B2, “Benzodiazepines as bromodomain inhibitors” (Catalyst Therapeutics Pty Ltd, priority 2015, dated 2019).

Molecules are shown by their SMILES. pIC50: −log10 of the molar value.

One experiment addresses BRD-3 (Domain 1) (Homo sapiens (Human), UniProt Q15059). Briefly: AlphaScreen BRD binding assay, BRD-3 (Domain 1). The note with it: acetyl-histone H4 peptide 2.5 nM, protein 80 nM. As to the method:
(§1) Biological Characterization Assay Conditions Binding Assay
BRD binding and inhibition was assessed by measuring the interaction of biotinylated acetyl-histone H4 peptide (Anaspec #64989) with the BRD target protein utilising AlphaScreen® technology (Perkin Elmer). In a white 384-well low volume plate (Greiner #784076), 100 nL of compound series in DMSO (0.5% final concentration) was added to the BRD target protein (80 nM final). After 30 min incubation at RT, H4 peptide was added to a final concentration of 2.5 nM. AlphaScreen streptavidin donor beads and AlphaScreen nickel chelate acceptor beads were added to a final concentration of 10 ug/mL each and allowed to incubate in a darkened environment for 1 h at RT. Plates were read on an EnVision plate reader (Perkin Elmer) and IC50's calculated using a four parameter non-linear curve fit.
These conditions are identical for all BRDs screened except BRD2D2 which uses 160 nM protein and 1.25 nM peptide.
For orientation: Alpha assays give light when donor and acceptor beads are brought close together.

The subject of another experiment is HL-60. Briefly: Cell proliferation assay (CellTiter-Glo), HL-60. The class given is cell-based. The note with it: Homo sapiens, HL-60 cells, 72 h. As to the method: (§2) The cells were prepared in the required fashion (suspension or adherent). The cells were initially washed once in the culture medium that they would be finally treated in. Following this 10 ml of the test medium was added and the cells. The mixture was pipetted gently several times.
(§3) The cells were counted and then the volume was spun down to the volume necessary for the total number of cells needed. The cells were then resuspended in the appropriate test medium to the desired concentration. In general, the final concentration of non-adherent cells was 2×10^5 cells/ml i.e. 10,000 cells per 50 μ1. Once the desired concentration had been reached, 50 µl of the cells were added to the appropriate wells and the cells were incubated for 72 h at 37° C.
(§4) CellTiter-Glo Luminescent Assay (Kit G7571—See Promega's Instruction Manual for Additional Details):
(§5) Both reagents were pre-warmed to RT. The buffer was thawed in a 37° C. water bath until it had just completely thawed. It was then left on a bench at RT for at least 30 min.
(§6) Following this the substrate and buffer were mixed together. To ensure that the substrate was dissolved, the mixture was inverted several times.
(§7) The cell culture plates were removed from the incubator and were then allowed to adjust to RT for at least 30 min.
(§8) Afterwards 40 μL of the reagent was added to 100 μL of the culture medium. […] The plates were then incubated for 10 min on the bench. The luminescence could then be read using a luminescence plate reader.
Background: In ATP-based viability assays light output follows the ATP content of the culture.

The next experiment has as its system MV4; 11. The experiment is described as follows: Cell proliferation assay (CellTiter-Glo), MV4;11. The experiment is classed as cell-based. As to conditions: Homo sapiens, MV4;11 cells, 72 h. As for the experimental part:
as §2, §3, §4, §5, §6, §7, §8

The next experiment addresses BRD-4 (Domain 2) (Homo sapiens (Human), UniProt O60885). Briefly: AlphaScreen BRD binding assay, BRD-4 (Domain 2). The note with it: acetyl-histone H4 peptide 2.5 nM, protein 80 nM. As to the method:
as §1
(§9) AlphaScreen streptavidin donor beads and AlphaScreen nickel chelate acceptor beads were added to a final concentration of 10 ug/mL each and allowed to incubate in a darkened environment for 1 h at RT. Plates were read on an EnVision plate reader (Perkin Elmer) and IC50's calculated using a four parameter non-linear curve fit.

A further experiment deals with BRD-4 (Domain 1) (Homo sapiens (Human), UniProt O60885). The experiment is described as follows: AlphaScreen BRD binding assay, BRD-4 (Domain 1). As to conditions: acetyl-histone H4 peptide 2.5 nM, protein 80 nM. As for the experimental part:
as §1, §9

In the next experiment the target is BRD-2 (Domain 1) (Homo sapiens (Human), UniProt P25440). The experiment is described as follows: AlphaScreen BRD binding assay, BRD-2 (Domain 1). As to conditions: acetyl-histone H4 peptide 2.5 nM, protein 80 nM. As for the experimental part: as §1, §9
For another experiment, the target named is BRD-2 (Domain 2) (Homo sapiens (Human), UniProt P25440). The experiment is described as follows: AlphaScreen BRD binding assay, BRD-2 (Domain 2). As to conditions: 160 nM protein and 1.25 nM peptide. As to the method: as §1, §9
BRD-2 (Domain 2), sequence (P25440 344-453): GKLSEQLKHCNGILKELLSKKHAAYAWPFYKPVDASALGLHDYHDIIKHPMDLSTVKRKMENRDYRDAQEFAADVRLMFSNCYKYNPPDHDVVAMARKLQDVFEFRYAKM

BRD-3 (Domain 1), sequence (Q15059 34-140): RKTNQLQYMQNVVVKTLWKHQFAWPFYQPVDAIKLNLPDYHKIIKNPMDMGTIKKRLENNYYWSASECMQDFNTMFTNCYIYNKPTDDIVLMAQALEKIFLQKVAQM
BRD-2 (Domain 1), sequence (P25440 74-180): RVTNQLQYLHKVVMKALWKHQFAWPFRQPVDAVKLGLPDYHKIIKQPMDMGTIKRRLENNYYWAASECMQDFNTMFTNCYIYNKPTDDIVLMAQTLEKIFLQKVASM

Take `Cc1nnn2c1-c1ccc(C(=O)NC(C)c3ccccc3)cc1N(c1ccc(Cl)cc1)CC2` (stereo in doubt) [Example 35, 7-(4-chlorophenyl)-1-methyl-N—((R)-1-phenylethyl)-6,7-dihydro-5H-benzo[f][1,2,3]triazolo[1,5-d][1,4]diazepine-9-carboxamide]: the pIC50 at BRD-3 (Domain 1) is over 7.00; in the experiment with HL-60, over 6.00; in the experiment on MV4; 11, over 6.00.

As to `Cc1nnn2c1-c1ccc(C(=O)NC(C)c3ccccc3)cc1N(c1ccc(Cl)cc1)CC2` (stereo in doubt) [Example 39, 7-(4-chlorophenyl)-1-methyl-N—((S)-1-phenylethyl)-6,7-dihydro-5H-benzo[f][1,2,3]triazolo[1,5-d][1,4]diazepine-9-carboxamide], the pIC50 is over 7.00 at BRD-3 (Domain 1), over 6.00 in the experiment on HL-60 and over 6.00 in the experiment with MV4; 11.

Regarding `Cc1ccc(-c2ccc3c(c2)N(c2ccc(Cl)cc2)CCn2nnc(C)c2-3)cn1` [Example 7, 7-(4-Chlorophenyl)-1-methyl-9-(6-methylpyridin-3-yl)-6,7-dihydro-5H-benzo[f][1,2,3]triazolo[1,5-d][1,4]diazepine], the pIC50 is over 7.00 at BRD-4 (Domain 2); over 7.00 on BRD-3 (Domain 1); over 7.00 at BRD-4 (Domain 1); over 6.00 in the experiment on HL-60; over 6.00 in the experiment on MV4; 11.

Consider `Cc1nnn2c1-c1ccc(-c3ccc(N)nc3)cc1N(c1ccc(Cl)cc1)CC2` [Example 8, 5-(7-(4-Chlorophenyl)-1-methyl-6,7-dihydro-5H-benzo[f][1,2,3]triazolo[1,5-d][1,4]diazepin-9-yl)pyridin-2-amine], for which the pIC50 is over 7.00 at BRD-4 (Domain 2); over 7.00 on BRD-3 (Domain 1); over 7.00 on BRD-4 (Domain 1); over 6.00 with HL-60; over 6.00 with MV4; 11.

Regarding `Cc1nnn2c1-c1ccc(-c3cc[nH]n3)cc1N(c1ccc(Cl)cc1)CC2` [Example 10, 7-(4-Chlorophenyl)-1-methyl-9-(1H-pyrazol-3-yl)-6,7-dihydro-5H-benzo[f][1,2,3]triazolo[1,5-d][1,4]diazepine], the pIC50 is over 7.00 at BRD-4 (Domain 2); over 7.00 at BRD-3 (Domain 1); over 7.00 on BRD-4 (Domain 1); over 6.00 with HL-60; over 6.00 in the experiment with MV4; 11.

Turning to `Cc1nnn2c1-c1ccc(CCN3CCOCC3)cc1N(c1ccc(Cl)cc1)CC2` [Example 30, 4-(2-(7-(4-chlorophenyl)-1-methyl-6,7-dihydro-5H-benzo[f][1,2,3]triazolo[1,5-d][1,4]diazepin-9-yl)ethyl)morpholine], the pIC50 at BRD-2 (Domain 1) is 6.00 to 7.00; at BRD-4 (Domain 2), 6.00 to 7.00; at BRD-3 (Domain 1) it was 6.00 to 7.00; at BRD-4 (Domain 1), 6.00 to 7.00; in the experiment on HL-60 it was 5.30 to 6.00; on BRD-2 (Domain 2), 6.00 to 7.00.

On to `COC(=O)c1ccc2c(c1)N(c1ccc(Cl)cc1)CCn1nnc(C)c1-2` [Example 31, methyl 7-(4-chlorophenyl)-1-methyl-5,6-dihydrotriazolo[1,5-d][1,4]benzodiazepine-9-carboxylate], for which the pIC50 with HL-60 and with MV4; 11 was over 6.00 throughout.

In the case of `Cc1nnn2c1-c1ccc(C(=O)O)cc1N(c1ccc(Cl)cc1)CC2` [Example 32, 7-(4-chlorophenyl)-1-methyl-5,6-dihydrotriazolo[1,5-d][1,4]benzodiazepine-9-carboxylic acid], the negative logarithm of the IC50 (pIC50) on BRD-2 (Domain 1) is 6.00 to 7.00; on BRD-3 (Domain 1), over 7.00; in the experiment on HL-60 it was under 5.30; in the experiment with MV4; 11, over 6.00; on BRD-2 (Domain 2) it was over 7.00.

As to `Cc1nnn2c1-c1ccc(C(=O)Nc3ccccc3)cc1N(c1ccc(Cl)cc1)CC2` [Example 36, 7-(4-chlorophenyl)-1-methyl-N-phenyl-6,7-dihydro-5H-benzo[f][1,2,3]triazolo[1,5-d][1,4]diazepine-9-carboxamide], the values for the negative logarithm of the IC50 (pIC50) at BRD-3 (Domain 1), in the experiment on HL-60 and with MV4; 11 were over 7.00, over 6.00 and over 6.00, respectively.

For `Cc1nnn2c1-c1ccc(C(=O)NS(=O)(=O)c3ccccc3)cc1N(c1ccc(Cl)cc1)CC2` [Example 40, 7-(4-chlorophenyl)-1-methyl-N-(phenylsulfonyl)-6,7-dihydro-5H-benzo[f][1,2,3]triazolo[1,5-d][1,4]diazepine-9-carboxamide], the pIC50 on BRD-2 (Domain 1) is over 7.00; on BRD-4 (Domain 2), over 7.00; at BRD-3 (Domain 1), over 7.00; on BRD-4 (Domain 1) it was over 7.00; with HL-60, under 5.30; with MV4; 11, 5.30 to 6.00. The pIC50 at BRD-2 (Domain 2) is over 7.00.

Regarding `Cc1nnn2c1-c1ccc(C(=O)NS(C)(=O)=O)cc1N(c1ccc(Cl)cc1)CC2` [Example 41, 7-(4-chlorophenyl)-1-methyl-N-(methylsulfonyl)-6,7-dihydro-5H-benzo[f][1,2,3]triazolo[1,5-d][1,4]diazepine-9-carboxamide], the pIC50 is over 7.00 on BRD-4 (Domain 2), over 7.00 at BRD-4 (Domain 1), 5.30 to 6.00 in the experiment with HL-60 and over 6.00 in the experiment with MV4; 11.

Consider `Cc1nnn2c1-c1ccc(C(=O)N[C@@H](C)c3ccc(F)cc3)cc1N(c1ccccc1)CC2` [Example 43], for which the pIC50 is over 7.00 on BRD-2 (Domain 1); over 7.00 on BRD-4 (Domain 2); over 7.00 on BRD-4 (Domain 1); over 6.00 in the experiment with HL-60; over 6.00 in the experiment on MV4; 11; over 7.00 at BRD-2 (Domain 2).

Consider `Cc1nnn2c1-c1ccc(C(=O)NOCCO)cc1N(c1ccc(Cl)cc1)CC2` [Example 45, 7-(4-Chlorophenyl)-N-(2-hydroxyethoxy)-1-methyl-6,7-dihydro-5H-benzo[f][1,2,3]triazolo[1,5-d][1,4]diazepine-9-carboxamide], for which the pIC50 is over 7.00 on BRD-2 (Domain 1); over 7.00 on BRD-4 (Domain 2); over 7.00 at BRD-4 (Domain 1); over 6.00 in the experiment on HL-60; over 6.00 in the experiment on MV4; 11; over 7.00 at BRD-2 (Domain 2).

With `CONC(=O)c1ccc2c(c1)N(c1ccc(Cl)cc1)CCn1nnc(C)c1-2` [Example 46, 7-(4-chlorophenyl)-N-methoxy-1-methyl-6,7-dihydro-5H-benzo[f][1,2,3]triazolo[1,5-d][1,4]diazepine-9-carboxamide], the pIC50 was over 7.00 at BRD-2 (Domain 1); over 7.00 on BRD-4 (Domain 2); over 7.00 at BRD-4 (Domain 1); over 6.00 in the experiment on HL-60; over 6.00 in the experiment on MV4; 11; over 7.00 at BRD-2 (Domain 2).

Turning to `Cc1nnn2c1-c1ccc(-c3nn[nH]n3)cc1N(c1ccc(Cl)cc1)CC2` [Example 51, 7-(4-chlorophenyl)-1-methyl-9-(2H-tetrazol-5-yl)-6,7-dihydro-5H-benzo[f][1,2,3]triazolo[1,5-d][1,4]diazepine], the pIC50 on BRD-4 (Domain 2) is over 7.00; at BRD-4 (Domain 1), over 7.00; in the experiment on HL-60, under 5.30; with MV4; 11 it was over 6.00.

In general, pIC50 refers to the IC50 on a negative log10 scale, so that one unit is a factor of ten.
